Reference: article PMC8522630 (Cell, 2021)

Assays:
H-2K^b = H-2K^b (Mus musculus, UniProt P01901, A160C/Y105C); test: Differential Scanning Fluorimetry of pMHC thermal melting; assay type: binding; conditions: DSF, 50 mM HEPES pH 7.5, SYPRO Orange; Tm averaged from 3 experiments; compared to mLAMA4
[1] = test system: antigen-specific CD8 T cells in KP lung adenocarcinoma; assay type: in vivo, mouse; conditions: 5–6 weeks; for CD8 T cell response magnitude, antigen expressed alone: LucA (mALG8) or LucL (mLAMA4); for proportion of TCF1+ progenitor cells, antigens co-expressed / CD8 T cell response magnitude, antigens co-expressed: LucAL; for CD8 T cell response magnitude, antigens co-expressed: compared to the single-antigen setting

Chain of H-2K^b (P01901 22-295 Y105C/A160C limits assumed): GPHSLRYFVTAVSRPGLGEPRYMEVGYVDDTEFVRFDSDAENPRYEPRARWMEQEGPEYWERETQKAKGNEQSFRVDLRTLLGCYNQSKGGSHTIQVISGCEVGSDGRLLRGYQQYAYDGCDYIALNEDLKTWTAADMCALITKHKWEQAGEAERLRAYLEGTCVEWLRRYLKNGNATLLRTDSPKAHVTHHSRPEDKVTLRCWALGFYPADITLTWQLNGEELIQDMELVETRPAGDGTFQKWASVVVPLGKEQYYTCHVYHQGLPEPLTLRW
Chain of H-2K^b (P61769 21-119 partner): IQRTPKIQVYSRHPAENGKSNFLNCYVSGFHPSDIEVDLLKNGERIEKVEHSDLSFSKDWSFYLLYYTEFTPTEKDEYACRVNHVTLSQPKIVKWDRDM

| Sequence | pMHC complex stability (Koff), relative to mLAMA4 (H-2K^b) | CD8 T cell response magnitude, antigen expressed alone [1] | proportion of TCF1+ progenitor cells, antigens co-expressed [1] | CD8 T cell response magnitude, antigens co-expressed [1] |
| --- | --- | --- | --- | --- |
| ITYTWTRL [mALG8] | similar, but slightly lower affinity and stability | responses of equivalent magnitude | increased for both responses (Figure S3M), trending towards greater enrichment for the mALG8 response | neither response became dominant in terms of T cell expansion, but both decreased in magnitude compared to the single-antigen setting |
| VGFNFRTL [mLAMA4] |  | responses of equivalent magnitude | increased for both responses | neither response became dominant in terms of T cell expansion, but both decreased in magnitude compared to the single-antigen setting |
